# According to patent US20210115040A1, “OGA INHIBITOR COMPOUNDS” (Janssen Pharmaceutica NV, priority 2018, published 2021):
# Target: T1, recombinant human Meningioma Expressed Antigen 5 (MGEA5), also referred to as O-GlcNAcase (OGA) (Homo sapiens, UniProt O60502)
# T1 construct: Full length OGA enzyme was purchased at OriGene (cat #TP322411); purchased OriGene TP322411
# T1 sequence (O60502 1-916): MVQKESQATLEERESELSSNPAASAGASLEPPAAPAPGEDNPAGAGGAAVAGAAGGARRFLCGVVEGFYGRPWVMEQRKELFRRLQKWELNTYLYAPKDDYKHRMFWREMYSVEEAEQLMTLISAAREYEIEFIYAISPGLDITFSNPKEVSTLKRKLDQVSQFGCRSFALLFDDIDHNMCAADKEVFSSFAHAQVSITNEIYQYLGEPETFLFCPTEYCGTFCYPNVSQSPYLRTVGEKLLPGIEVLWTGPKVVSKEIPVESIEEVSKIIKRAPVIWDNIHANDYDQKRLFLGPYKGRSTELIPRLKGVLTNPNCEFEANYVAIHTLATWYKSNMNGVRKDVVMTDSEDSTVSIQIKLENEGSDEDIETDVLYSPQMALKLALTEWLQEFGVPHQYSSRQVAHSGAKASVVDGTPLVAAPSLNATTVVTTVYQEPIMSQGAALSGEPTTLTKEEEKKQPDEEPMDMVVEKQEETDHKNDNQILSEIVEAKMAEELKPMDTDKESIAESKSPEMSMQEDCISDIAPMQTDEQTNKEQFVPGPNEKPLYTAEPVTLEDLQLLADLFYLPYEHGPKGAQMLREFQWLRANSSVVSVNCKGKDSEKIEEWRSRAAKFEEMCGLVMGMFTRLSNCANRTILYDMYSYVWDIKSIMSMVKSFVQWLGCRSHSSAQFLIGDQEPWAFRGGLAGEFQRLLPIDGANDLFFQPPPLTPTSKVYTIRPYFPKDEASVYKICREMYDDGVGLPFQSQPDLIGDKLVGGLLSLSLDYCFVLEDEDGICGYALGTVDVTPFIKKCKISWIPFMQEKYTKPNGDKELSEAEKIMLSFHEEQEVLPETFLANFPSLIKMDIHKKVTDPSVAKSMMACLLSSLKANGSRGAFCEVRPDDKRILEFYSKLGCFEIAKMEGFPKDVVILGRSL
# Experiment: OGA biochemical assay (inhibition of FM-GlcNAc hydrolysis, fluorescence)
# Conditions: FM-GlcNAc substrate, 6 h at room temperature, read-out: Enzymatic hOGA, pIC50 (converted)
# Description: The assay is based on the inhibition of the hydrolysis of fluorescein mono-β-D-N-Acetyl-Glucosamine (FM-GlcNAc) (Mariappa et al. 2015, Biochem J 470:255) by the recombinant human Meningioma Expressed Antigen 5 (MGEA5), also referred to as O-GlcNAcase (OGA). The hydrolysis FM-GlcNAc (Marker Gene technologies, cat #M1485) results in the formation of β-D-N-glucosamineacetate and fluorescein. The fluorescence of the latter can be measured at excitation wavelength 485 nm and emission wavelength 538 nm. An increase in enzyme activity results in an increase in fluorescence signal. Full length OGA enzyme was purchased at OriGene (cat #TP322411). The enzyme was stored in 25 mM Tris.HCl, pH 7.3, 100 mM glycine, 10% glycerol at −20° C. Thiamet G and GlcNAcStatin were tested as reference compounds (Yuzwa et al. 2008 Nature Chemical Biology 4:483; Yuzwa et al. 2012 Nature Chemical Biology 8:393). The assay was performed in 200 mM Citrate/phosphate buffer supplemented with 0.005% Tween-20. 35.6 g Na2HPO4 2H2O (Sigma, #C0759) were dissolved in 1 L water to obtain a 200 mM solution. 19.2 g citric acid (Merck, #1.06580) was dissolved in 1 L water to obtain a 100 mM solution. pH of the sodiumphosphate solution was adjusted with the citric acid solution to 7.2. The buffer to stop the reaction consists of a 500 mM Carbonate buffer, pH 11.0. 734 mg FM-GlcNAc were dissolved in 5.48 mL DMSO to obtain a 250 mM solution and was stored at −20° C. OGA was used at a 2 nM concentration and FM-GlcNAc at a 100 uM final concentration. Dilutions were prepared in assay buffer.
# 50 nl of a compound dissolved in DMSO was dispensed on Black Proxiplate™ 384 Plus Assay plates (Perkin Elmer, #6008269) and 3 μl fl-OGA enzyme mix added subsequently. Plates were pre-incubated for 60 min at room temperature and then 2 μl FM-GlcNAc substrate mix added. […] Plates were briefly centrifuged for 1 min at 1000 rpm and incubate at room temperature for 6 h. To stop the reaction 5 μl STOP buffer were added and plates centrifuge again 1 min at 1000 rpm. Fluorescence was quantified in the Thermo Scientific Fluoroskan Ascent or the PerkinElmer EnVision with excitation wavelength 485 nm and emission wavelength 538 nm.
# For analysis a best-fit curve is fitted by a minimum sum of squares method. From this an IC50 value and Hill coefficient was obtained. High control (no inhibitor) and low control (saturating concentrations of standard inhibitor) were used to define the minimum and maximum values.
row,Compound,IC50 [nM]
1,Cc1cc(C2CCCN(C(C)c3cnc4[nH]c(C)nc4c3)C2)cc(C)n1 (stereo not drawn) [Compound 1],316
2,COc1cc(C2CCCN(C(C)c3cnc4[nH]c(C)nc4c3)C2)cc(C)n1 (stereo not drawn) [Compound 2],200
3,Cc1cc(C2CCCN(C(C)c3cnc4[nH]c(C)nc4c3)C2)cc(C(F)(F)F)n1 (stereo not drawn) [Compound 3],316
4,Cc1cc(OC2CCCN(C(C)c3ccc4[nH]c(C)nc4n3)C2)cc(C(F)(F)F)n1 (stereo not drawn) [Compound 5],794
5,Cc1cc(C[C@H]2CCCN(Cc3ccc4[nH]c(C)nc4c3)C2)cc(C)n1 [Compound 10],1000
6,Cc1cc(C[C@H]2CCCN(Cc3ccc4cn(C)nc4c3)C2)cc(C)n1 [Compound 17],794
7,Cc1cc(C[C@H]2CCCN(Cc3ccc4oc(C)nc4n3)C2)cc(C)n1 [Compound 36],63.1
8,COc1cc(OC2CCCN(C(C)c3ccc4sc(C)nc4n3)C2)cc(C)n1 (stereo not drawn) [Compound 41],126
9,Cc1cc(C[C@H]2CCCN(Cc3ccc4nc(C)sc4c3)C2)cc(C)n1 [Compound 53],3980
10,Cc1cc(C[C@H]2CCN(Cc3ccc4nc(C)sc4c3)C2)cc(C)n1 [Compound 55],> 10000
11,Cc1cc(C[C@H]2CCN(C(C)c3ccc4nc(C)sc4c3)C2)cc(C)n1 (stereo partly drawn) [Compound 56],> 10000
12,Cc1nc2nc(C(C)N3CC[C@H](Cc4cc(F)cc(F)n4)C3)ccc2o1 (stereo partly drawn) [Compound 79],158

# The next lines start with the values.
row,IC50 [nM],Compound
1,501,COc1cc([C@H]2CCCN([C@@H](C)c3cnc4[nH]c(C)nc4c3)C2)cc(C(F)(F)F)n1 [Compound 4b]
2,> 10000,COc1cc(O[C@@H]2CCN([C@@H](C)c3ccc4oc(C)nc4n3)C2)cc(C)n1 [Compound 21a]
3,5010,Cc1cc(C[C@H]2CCCN([C@@H](C)c3ccc4oc(C)nc4n3)C2)cc(C(F)(F)F)n1 [Compound 24b]
4,200,Cc1cc(C[C@H]2CCN([C@@H](C)c3ccc4oc(C)nc4n3)C2)cc(C)n1 [Compound 27a]
5,> 10000,Cc1cc(C[C@H]2CCN([C@H](C)c3ccc4oc(C)nc4n3)C2)cc(C)n1 [Compound 27b]
6,501,Cc1cc(OC[C@@H]2CCCN([C@H](C)c3ccc4sc(C)nc4n3)C2)cc(C)n1 [Compound 45a]
7,631,Cc1cc(OC[C@H]2CCCN([C@@H](C)c3ccc4sc(C)nc4n3)C2)cc(C)n1 [Compound 46a]

# Same assay, conditions: FM-GlcNAc substrate, maximal effect, read-out: Enzymatic Emax (%)
row,Compound,Emax [%]
1,Cc1cc(C2CCCN(C(C)c3cnc4[nH]c(C)nc4c3)C2)cc(C)n1 (stereo not drawn) [Compound 1],98
2,COc1cc(C2CCCN(C(C)c3cnc4[nH]c(C)nc4c3)C2)cc(C)n1 (stereo not drawn) [Compound 2],97
3,Cc1cc(C2CCCN(C(C)c3cnc4[nH]c(C)nc4c3)C2)cc(C(F)(F)F)n1 (stereo not drawn) [Compound 3],96
4,Cc1cc(OC2CCCN(C(C)c3ccc4[nH]c(C)nc4n3)C2)cc(C(F)(F)F)n1 (stereo not drawn) [Compound 5],94
5,Cc1cc(C[C@H]2CCCN(Cc3ccc4[nH]c(C)nc4c3)C2)cc(C)n1 [Compound 10],89
6,Cc1cc(C[C@H]2CCCN(Cc3ccc4cn(C)nc4c3)C2)cc(C)n1 [Compound 17],90
7,Cc1cc(C[C@H]2CCCN(Cc3ccc4oc(C)nc4n3)C2)cc(C)n1 [Compound 36],101
8,COc1cc(OC2CCCN(C(C)c3ccc4sc(C)nc4n3)C2)cc(C)n1 (stereo not drawn) [Compound 41],101
9,Cc1cc(C[C@H]2CCCN(Cc3ccc4nc(C)sc4c3)C2)cc(C)n1 [Compound 53],77
10,Cc1cc(C[C@H]2CCN(Cc3ccc4nc(C)sc4c3)C2)cc(C)n1 [Compound 55],18
11,Cc1cc(C[C@H]2CCN(C(C)c3ccc4nc(C)sc4c3)C2)cc(C)n1 (stereo partly drawn) [Compound 56],41
12,Cc1nc2nc(C(C)N3CC[C@H](Cc4cc(F)cc(F)n4)C3)ccc2o1 (stereo partly drawn) [Compound 79],99

# The next lines start with the values.
row,Emax [%],Compound
1,50,COc1cc([C@H]2CCCN([C@H](C)c3cnc4[nH]c(C)nc4c3)C2)cc(C(F)(F)F)n1 [Compound 4a]
2,96,COc1cc([C@H]2CCCN([C@@H](C)c3cnc4[nH]c(C)nc4c3)C2)cc(C(F)(F)F)n1 [Compound 4b]
3,22,COc1cc(O[C@@H]2CCN([C@@H](C)c3ccc4oc(C)nc4n3)C2)cc(C)n1 [Compound 21a]
4,69,Cc1cc(C[C@H]2CCCN([C@@H](C)c3ccc4oc(C)nc4n3)C2)cc(C(F)(F)F)n1 [Compound 24b]
5,99,Cc1cc(C[C@H]2CCN([C@@H](C)c3ccc4oc(C)nc4n3)C2)cc(C)n1 [Compound 27a]
6,47,Cc1cc(C[C@H]2CCN([C@H](C)c3ccc4oc(C)nc4n3)C2)cc(C)n1 [Compound 27b]
7,95,Cc1cc(OC[C@@H]2CCCN([C@H](C)c3ccc4sc(C)nc4n3)C2)cc(C)n1 [Compound 45a]
8,96,Cc1cc(OC[C@H]2CCCN([C@@H](C)c3ccc4sc(C)nc4n3)C2)cc(C)n1 [Compound 46a]
